Results taken from the METLIN SMRT retention time set (Domingo-Almenara et al. 2019).

Assay: gradient 5% acetonitrile 3 min, to 50% in 2 min, to 85% in 15 min, held 3 min, 100 µL/min
Details: column: Zorbax Extend-C18 2.1 x 50 mm; eluents: water / acetonitrile, 0.1% formic acid
In short: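 Retention times of pure standards were taken from adduct peaks that were selected by computer and manually inspected. Over 3 months, mixtures of ~100 molecules were run by HPLC–quadrupole time-of-flight mass spectrometry in positive and negative ionization mode. The Zorbax Extend-C18 column (2.1 × 50 mm, 1.8 μm) ran at 100 μL/min in water and acetonitrile, each containing 0.1% formic acid, with 40 μL dead volume and 900 μL dwell volume.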

| SMILES | RP-LC retention time [s] |
| --- | --- |
| CCS(=O)(=O)N1CCC(Cc2nncn2Cc2ccccc2)C1 (stereo unspecified) | 643 |
| COc1ccc(C(=O)N2CCN(c3c(C)n(C)c(=O)n(C)c3=O)CC2)cc1 | 697 |
| CCC(c1cccs1)N1C(=O)[C@H]2CN(S(=O)(=O)c3ccc(OC)cc3)C[C@H]2C1=O (stereo partly specified) | 910 |
| COc1ccc(NC(=O)N2CCN(c3cc(-c4ccc(OC)c(OC)c4)ncn3)CC2)c(OC)c1 | 660 |
| Cc1cccc(NC(=O)C2CC(=O)N(c3n[nH]c4cccc(F)c34)C2)c1 (stereo unspecified) | 759 |
| CCOc1nccnc1N1CCC(N(C)C(=O)c2ccsc2)C1 (stereo unspecified) | 724 |
| COc1cc(NS(=O)(=O)c2ccc3c(c2)-c2oncc2CO3)cc(OC)c1OC | 805 |
| COc1ccc(-c2nnc(COc3ccc(NC(=O)c4n[nH]c5c4CCCC5)cc3)o2)cc1 | 907 |
| Cc1cc(C(=O)NC(C)C)c2cc(Cl)ccc2n1 | 718 |
| CN(C)CCOc1ccccc1Cc1ccccc1 | 762 |
| CCc1cc(C(=O)Nc2cc(OC)cc(OC)c2)nc2cc(-c3ccco3)nn12 | 795 |
| CCCn1c(=O)c(C)nc2cc(-c3noc(/C=C/c4ccc(OC)cc4)n3)ccc21 | 1210 |
| CCOc1ccc(S(=O)(=O)NCc2ccc3c(c2)CCN3C(=O)c2ccccc2)cc1 | 953 |
| CC1CCN(C(=O)C2CCN(c3cc(N4CCCCC4)ncn3)CC2)CC1 | 676 |
| COc1cc(-c2ccc(Cl)cc2)nc2ccc(NC(=O)c3cccs3)cc12 | 814 |
| COc1cc(NC(=O)N2CCCC(C)(C(=O)NCc3ccc(F)cc3)C2)cc(OC)c1OC (stereo unspecified) | 778 |
| CCc1cc2nn(CC#N)c(=O)n2c(C(C)C)n1 | 871 |
| CC(=O)c1cccc(NC(=O)COc2cc(C)nc(N3CCCC3)n2)c1 | 616 |
| COCCNC(=O)C1CCN(c2nccc(C)n2)CC1 | 561 |
| CCN1CCC(N(Cc2ccc3c(c2)OCO3)C(=O)Nc2ccc(OC)cc2)CC1 | 641 |
| COc1ccc(Cl)cc1NC(=O)Cn1c(C)nc(-c2ccccn2)cc1=O | 727 |
| CCCc1noc(-c2ccc(-n3cnc(C(=O)NC4CCCCC4)c3)nc2)n1 | 741 |
| Cc1cc(NC(=O)CC2COc3ccccc3NC2=O)ccc1Br (stereo unspecified) | 791 |

| SMILES | RP-LC retention time [s] |
| --- | --- |
| CCOC(=O)c1c(CN2CCN(CCO)CC2)n(C)c2cc(Br)c(OC(C)=O)cc12 | 679 |
| CNC(=O)c1cc(COc2nnc(Nc3ccc(Cl)cc3)c3ccoc23)ccn1 | 749 |
| Cc1noc(-c2nn(C)c3c2CN(C(=O)NC(C)(C)C)CC3)n1 | 680 |
| CCCn1c(C)cnc1C1CN(C(=O)c2ccoc2)C1 | 573 |
| COc1ccc(NC(=O)Nc2c(-c3cccc(C)c3)nc3ccccn23)cc1Cl | 702 |
| Cc1ccnc(NC(=O)C2CCN(S(=O)(=O)c3ccc(-c4noc(C5CC5)n4)cc3)CC2)c1 | 794 |
| CN(Cc1ccco1)C(=O)C1CCCN(c2nc3cccnc3s2)C1 (stereo unspecified) | 745 |
| COc1cc(NC(=O)N2CCC(C)(C(=O)NCc3ccc(C)cc3)CC2)cc(OC)c1OC | 765 |
| Cc1ccccc1NC(=O)N1CCC(N2CCN(Cc3ccccc3)C2=O)CC1 | 794 |
| COc1ccc(-c2nc3cnccn3c2Nc2ccc(Cl)cc2)cc1 | 896 |
| CN1CCN(c2ncc3c(=O)n(CC4CCCO4)ccc3n2)CC1 (stereo unspecified) | 567 |
| CN(Cc1cccnc1Oc1ccccc1)C(=O)c1cccn1C | 781 |
| CN(C)S(=O)(=O)c1ccc(C(=O)NCc2ccsc2)cc1 | 730 |
| Cc1cccc(-c2nsc(SCC(=O)N3CCc4ccccc43)n2)c1 | 1150 |
| COc1cccc(CN2CCc3nc(N4CCN(c5ccccc5F)CC4)ncc3C2)c1 | 785 |
| CCc1nc(-c2csc(S(=O)(=O)N3CCCC(C(=O)NC4CCCCCC4)C3)c2)no1 (stereo unspecified) | 1060 |
| CCOC(=O)CCNC(=O)N1CCN(Cc2nc3cccnc3n2-c2ccc(F)cc2)CC1 | 607 |
| COCC(C)(O)CNC(=O)C(=O)Nc1cccc(F)c1 (stereo unspecified) | 675 |
| O=C(CC1(O)C(=O)Nc2c(Cl)cc(Cl)cc21)c1cccc([N+](=O)[O-])c1 (stereo unspecified) | 792 |
| O=C(c1cn(-c2cc(N3CCSCC3)ncn2)cn1)N1CCCCC1 | 789 |
| O=C(CSc1ccc(F)cc1)NCC1(CO)CC1 | 629 |
| COc1cccc(-c2cc(=O)c3ccccc3o2)c1N | 948 |
| Cc1cc(Nc2nc(C(=O)NCCCN3CCOCC3)cc3occc23)ccc1Br | 724 |

| SMILES | RP-LC retention time [s] |
| --- | --- |
| Cc1cc(C)c2sc(N(CCCn3ccnc3)C(=O)C3COc4ccccc4O3)nc2c1 (stereo unspecified) | 667 |
| COc1ccc(-c2noc(C3CCCN3C(=O)c3ccc(C)cc3)n2)cc1 (stereo unspecified) | 1010 |
| CC(C(O)c1ccc(O)cc1)N1CCC(Cc2ccccc2)CC1 (stereo unspecified) | 718 |
| Cc1cc(NC(=O)c2ccco2)c2cc(F)cc(F)c2n1 | 668 |
| O=C(NCC1CCN(C(=O)c2cc3ccccc3o2)CC1)c1cc(-c2ccccc2)on1 | 903 |
| CCN(Cc1ccccc1)Cc1nc(-c2ccc(N3CCCC3)nc2)no1 | 640 |
| Cc1ccc(N2CCN(S(=O)(=O)N(C)C)CC2)cc1Cl | 990 |
| O=C(Cn1cc(-c2ccccc2)c2ncn(C3CC3)c(=O)c21)Nc1ccc2c(c1)OCO2 | 826 |
| Cc1ccc(S(=O)(=O)N2CCCN(c3ccc(=O)n(-c4ccccc4)n3)CC2)c(C)c1 | 916 |
| Cc1oc(C2CCC2)nc1C(=O)NCc1ccc2c(c1)OCO2 | 978 |
| CC(=O)OCOC(c1ccc2ccccc2c1)P(=O)(OCOC(C)=O)OCOC(C)=O (stereo unspecified) | 854 |
| CC(C)NC(=O)Nc1cc2c(cc1N1CCOCC1)n(C)c(=O)n2C | 634 |
| O=c1c2cc(-c3ccc4c(c3)OCO4)nn2ccn1Cc1ccc(F)cc1 | 986 |
| C=CCN1CCN(c2nc3cc(C(=O)OC)ccc3c(=O)n2-c2ccc(F)c(Cl)c2)CC1 | 699 |
| COc1ccc(C(=O)N2CCN(C(=O)c3ccco3)CC2)nn1 | 576 |
| Cc1cc(C)n2nc(SCC(=O)NC3CCC(C)CC3)nc2n1 (stereo unspecified) | 752 |
| CCCNC(=O)CN1c2ccc(F)cc2-c2ccccc2S1(=O)=O | 824 |
| CCOC(=O)c1ccc(NC(=O)Cn2cnc3nc(N4CCCC4)ncc3c2=O)cc1 | 753 |
| Cc1cc(-c2nnc(-c3ccc(F)cc3)o2)c(C)n1CC(=O)NC(C)c1ccccc1 (stereo unspecified) | 946 |
| Cc1cc(C)cc(Oc2nccn3c(=O)n(CC(=O)Nc4cc(Cl)ccc4C)nc23)c1 | 1050 |
| Cn1nc(C(=O)N2CCC3(CC2)N=C(c2cccc(Br)c2)NO3)c2ccccc21 | 923 |
| c1ccc(-c2csc(NCc3ccco3)n2)cc1 | 912 |
| CCNC(=O)C1CCc2sc(C(=O)N3CCOCC3)cc2C1 (stereo unspecified) | 632 |

| SMILES | RP-LC retention time [s] |
| --- | --- |
| Cc1cc(C)c(-c2noc(C)n2)c(NC(=O)c2cccc(Cl)c2)n1 | 827 |
| CCOC(=O)CCc1c(C)c2c(O)cc(O)cc2oc1=O | 701 |
| COC[C@@H]1CN(Cc2cc(Cl)ccc2F)C[C@H]1c1nc(C)no1 | 639 |
| Cc1noc(C2(NC(=O)c3ccc[nH]c3=O)CCCCC2)n1 | 621 |
| Cn1c(=O)n(CC(=O)Nc2ccc(F)cc2F)c(=O)c2cnc(-c3ccccc3)nc21 | 1000 |
| COc1ccc(CC(=O)Nc2ccc3ncnc(N4CCCC4)c3c2)cc1Cl | 680 |
| COc1ccc2c(c1)CCCN2C(N)=Nc1ccc(Cl)cc1 | 753 |
| COc1ccc(C)c2sc(NCCCn3ccnc3)nc12 | 552 |
| COc1ccc(N2CC(c3nc(-c4cc(OC)c(OC)c(OC)c4)no3)CC2=O)cc1 (stereo unspecified) | 743 |
| CCOc1ncccc1C(=O)OCc1cc(-c2ccco2)on1 | 927 |
| CCCCOC(=O)c1ccc(Nc2nc(C(=O)OCC)nc3ccccc23)cc1 | 1070 |
| CCOc1nc2ccccc2nc1N1CCCC(C(=O)Nc2ccc(Br)cc2F)C1 (stereo unspecified) | 1390 |
| CCn1cc(C)c(C(=O)O)c1CC(=O)N(C)Cc1ccccc1 | 772 |
| CCc1ccc(CNC(=O)C2CCN(C(=O)c3ncn4c3COC(c3ccc(C)cc3)C4)CC2)cc1 (stereo unspecified) | 853 |
| COc1ccc(Cl)cc1NC(=O)C1(C)Oc2cccnc2NC1=O (stereo unspecified) | 798 |
| CCc1ccccc1NC(=O)NCC(c1cccnc1)c1cn(C)c2ccccc12 (stereo unspecified) | 711 |
| Cc1c(Cl)cccc1NC(=O)CN1C(=O)NC2(CCCCC2)C1=O | 779 |
| CSc1ccccc1NC(=O)C(=O)NCC1(CO)CC1 | 727 |
| COc1ccc(NC(=O)CSc2ccc(-c3cccs3)nn2)c(OC)c1 | 890 |
| COc1ccccc1NC(=O)Cn1cnc2nc(N3CCCC(C(=O)NC(C)C)C3)sc2c1=O (stereo unspecified) | 688 |
| Cc1nnc(-c2coc(S(=O)(=O)N3CCN(C4CCCCC4)CC3)c2)o1 | 615 |
| CC(=O)c1ccc(N(C(C)=O)S(=O)(=O)c2ccc(Cl)cc2)cc1 | 841 |
